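Step 1: Grow cells in 96-well plates. Step 2: Expose to compound for 48 hours at 5 concentrations. Step 3: Interpolate endpoints linearly; if unreached, use highest concentration. GI50 is the concentration that inhibits growth by half. Definition used: TGI = concentration required for complete inhibition of growth.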
Columns and labels:
Experiment in all cases: growth of human tumour cells (NCI), 48 h
OVCAR-4 ovarian = system: OVCAR-4 ovarian
HOP-92 NSCLC = system: HOP-92 NSCLC
UACC-62 melanoma = system: UACC-62 melanoma
SF-268 CNS = system: SF-268 CNS
U251 CNS = system: U251 CNS
TK-10 renal = system: TK-10 renal
KM12 colon = system: KM12 colon
DU-145 prostate = system: DU-145 prostate
ACHN renal = system: ACHN renal
BT-549 breast = system: BT-549 breast
UACC-257 melanoma = system: UACC-257 melanoma
SNB-19 CNS = system: SNB-19 CNS
SF-295 CNS = system: SF-295 CNS
UO-31 renal = system: UO-31 renal
LOX IMVI melanoma = system: LOX IMVI melanoma
HS 578T breast = system: HS 578T breast
OVCAR-5 ovarian = system: OVCAR-5 ovarian
HL-60(TB) leukemia = system: HL-60(TB) leukemia
MCF7 breast = system: MCF7 breast
SNB-75 CNS = system: SNB-75 CNS
SK-MEL-2 melanoma = system: SK-MEL-2 melanoma
NCI/ADR-RES ovarian = system: NCI/ADR-RES ovarian
PC-3 prostate = system: PC-3 prostate
NCI-H226 lung = system: NCI-H226 lung
MALME-3M melanoma = system: MALME-3M melanoma
HCT-116 colon = system: HCT-116 colon
COLO 205 colon = system: COLO 205 colon
OVCAR-8 ovarian = system: OVCAR-8 ovarian
HOP-62 NSCLC = system: HOP-62 NSCLC
HT29 colon = system: HT29 colon
K-562 leukemia = system: K-562 leukemia
MDA-MB-435 = system: MDA-MB-435
IGROV1 ovarian = system: IGROV1 ovarian
NCI-H460 lung = system: NCI-H460 lung
M14 melanoma = system: M14 melanoma
SF-539 CNS = system: SF-539 CNS
CAKI-1 renal = system: CAKI-1 renal
RPMI-8226 leukemia = system: RPMI-8226 leukemia
NCI-H23 lung = system: NCI-H23 lung
SN12C renal = system: SN12C renal
786-0 renal = system: 786-0 renal
RXF 393 renal = system: RXF 393 renal
HCC-2998 colon = system: HCC-2998 colon
CCRF-CEM leukemia = system: CCRF-CEM leukemia
OVCAR-3 ovarian = system: OVCAR-3 ovarian
HCT-15 colon = system: HCT-15 colon
A549 NSCLC = system: A549 NSCLC
SR leukemia = system: SR leukemia
NCI-H522 lung = system: NCI-H522 lung
SK-MEL-28 melanoma = system: SK-MEL-28 melanoma
MOLT-4 leukemia = system: MOLT-4 leukemia
A498 renal = system: A498 renal
MDA-MB-231 breast = system: MDA-MB-231 breast
SW-620 colon = system: SW-620 colon
EKVX NSCLC = system: EKVX NSCLC
SK-MEL-5 melanoma = system: SK-MEL-5 melanoma
T-47D breast = system: T-47D breast

## COc1cc2c3c(n(CCCn4cncn4)c(=O)c2cc1OC)-c1cc2c(cc1C3=O)OCO2
OVCAR-4 ovarian
  GI50: > 100 µM
  TGI: > 100 µM
HOP-92 NSCLC
  GI50: 0.935 µM
  TGI: 38.6 µM
UACC-62 melanoma
  GI50: < 0.01 µM
SF-268 CNS
  GI50: 99 µM
  TGI: > 100 µM
U251 CNS
  GI50: < 0.0449 µM
  TGI: 31.8 µM
TK-10 renal
  GI50: 35.2 µM
  TGI: > 88.1 µM
KM12 colon
  GI50: > 100 µM
  TGI: > 100 µM
DU-145 prostate
  GI50: < 0.0293 µM
  TGI: > 34.7 µM
ACHN renal
  GI50: < 0.01 µM
  TGI: 2.56 µM
BT-549 breast
  GI50: 31.1 µM
  TGI: > 100 µM
UACC-257 melanoma
  GI50: > 100 µM
  TGI: > 100 µM
SNB-19 CNS
  TGI: > 100 µM
SF-295 CNS
  GI50: < 0.01 µM
  TGI: > 100 µM
UO-31 renal
  GI50: 0.0913 µM
  TGI: > 100 µM
LOX IMVI melanoma
  GI50: 0.0572 µM
  TGI: > 49.3 µM
HS 578T breast
  GI50: > 73.6 µM
  TGI: > 100 µM
OVCAR-5 ovarian
  GI50: > 100 µM
  TGI: > 100 µM
HL-60(TB) leukemia
  GI50: < 0.0131 µM
  TGI: 1.16 µM
MCF7 breast
  TGI: > 100 µM
SNB-75 CNS
  GI50: 0.799 µM
  TGI: 99.1 µM
SK-MEL-2 melanoma
  GI50: > 100 µM
  TGI: > 100 µM
NCI/ADR-RES ovarian
  GI50: 1.55 µM
  TGI: > 100 µM
PC-3 prostate
  GI50: 39.8 µM
  TGI: > 100 µM
NCI-H226 lung
  TGI: > 100 µM
MALME-3M melanoma
  GI50: 1.36 µM
  TGI: > 48.1 µM
HCT-116 colon
  GI50: 0.567 µM
  TGI: > 100 µM
COLO 205 colon
  GI50: > 100 µM
  TGI: > 100 µM
OVCAR-8 ovarian
  TGI: > 100 µM
HOP-62 NSCLC
  GI50: < 0.0283 µM
  TGI: 59 µM
HT29 colon
  GI50: > 73.1 µM
  TGI: > 100 µM
K-562 leukemia
  GI50: 1.49 µM
  TGI: 28.1 µM
MDA-MB-435
  GI50: > 100 µM
  TGI: > 100 µM
IGROV1 ovarian
  GI50: 10.9 µM
  TGI: > 100 µM
NCI-H460 lung
  GI50: < 0.01 µM
  TGI: > 100 µM
M14 melanoma
  GI50: < 0.01 µM
  TGI: > 100 µM
SF-539 CNS
  TGI: 19.6 µM
CAKI-1 renal
  TGI: > 100 µM
RPMI-8226 leukemia
  GI50: < 0.0194 µM
  TGI: 12.3 µM
NCI-H23 lung
  GI50: 0.0906 µM
  TGI: 57.5 µM
SN12C renal
  TGI: > 100 µM
786-0 renal
  TGI: > 49.3 µM
RXF 393 renal
  GI50: 11.9 µM
  TGI: > 100 µM
HCC-2998 colon
  GI50: 16.6 µM
  TGI: > 100 µM
CCRF-CEM leukemia
  GI50: < 0.01 µM
  TGI: 3.5 µM
OVCAR-3 ovarian
  GI50: 31.9 µM
  TGI: > 100 µM
HCT-15 colon
  GI50: > 100 µM
  TGI: > 100 µM
A549 NSCLC
  GI50: 16.3 µM
  TGI: > 100 µM
SR leukemia
  GI50: < 0.01 µM
NCI-H522 lung
  TGI: > 100 µM
SK-MEL-28 melanoma
  GI50: > 100 µM
  TGI: > 100 µM
MOLT-4 leukemia
  GI50: < 0.01 µM
  TGI: 0.242 µM
A498 renal
  GI50: 16.8 µM
  TGI: > 100 µM
MDA-MB-231 breast
  GI50: 80.9 µM
  TGI: > 100 µM
SW-620 colon
  GI50: 1.08 µM
  TGI: > 100 µM
EKVX NSCLC
  GI50: > 84.1 µM
  TGI: > 100 µM
SK-MEL-5 melanoma
  GI50: 0.671 µM
  TGI: 31 µM
T-47D breast
  TGI: > 100 µM
